Here are results for five compounds from US9023789B2, “Amylin analogs and pharmaceutical compositions thereof” (Novo Nordisk A/S, priority 2012, dated 2015).

Each structure is given as a SMILES string. Converted amounts (≈) assume the structure as drawn. Read-outs that look alike come from different tables or passages of the source. Numbered stars: 1 amine (or outer) side, 2 acyl side, 3 side chain; on linkers, the order of the positions; unused ones are H or OH. Bridge positions count the residues as written; N and C are the ends. Side chains are listed from the residue outwards. Peptide text beside a SMILES is read from it. * marks the point of attachment. C20 diacid = O=C(O)CCCCCCCCCCCCCCCCCCC(=O)*; γGlu = O=C(O)[C@H](CCC(=O)[*:2])N[*:1]

Data set [1] is described as follows: ASSAY (III) ThT fibrillation assay for physical stability. It is filed as physicochemical. In outline: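 Formulations with 1 μM ThT, pH adjusted as required, incubated at 37 °C with 960 rpm orbital shaking; fluorescence (ex 444/em 485 nm) read every 20 min. Fibrillation reported as mean ThT fluorescence ± SD of 4–8 replicates at time points; polypeptide concentration measured by reverse-phase HPLC before and after, post-centrifugation.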

A short description of data set [2]: ASSAY (IV) determination of solubility. It is filed as physicochemical. An outline of the steps:
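Dissolve polypeptide in water ([…] stock); combine 1:1 with each 100 mM buffer (glycylglycine pH 3.0/4.0/5.0; bistrispropane pH 6.0/6.5/7.0/7.5/8.0); hold 18 hours at room temperature; centrifuge; quantify polypeptide by UPLC.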

Where [3] appears, read: bistrispropane buffer, pH 6.5, read-out: Solubility pH 6.5 Concentration.
The mark [4] stands for this setting: bistrispropane buffer, pH 7.5, read-out: Solubility pH 7.5 Concentration.
Setting [5] is: bistrispropane buffer, pH 6.0, read-out: Solubility pH 6.0 Concentration.
Where [6] appears, read: bistrispropane buffer, pH 7.0, read-out: Solubility pH 7.0 Concentration.
Where [7] appears, read: bistrispropane buffer, pH 8.0, read-out: Solubility pH 8.0 Concentration.
The mark [8] stands for this setting: glycylglycine buffer, pH 3.0, read-out: Solubility pH 3.0 Concentration.
[9] abbreviates: glycylglycine buffer, pH 4.0, read-out: Solubility pH 4.0 Concentration.
[10] abbreviates: glycylglycine buffer, pH 5.0, read-out: Solubility pH 5.0 Concentration.

For `CC[C@H](C)[C@H](NC(=O)[C@H](C)NC(=O)CNC(=O)[C@H](Cc1ccccc1)NC(=O)[C@H](CC(N)=O)NC(=O)[C@@H]1CCCN1C(=O)[C@H](CO)NC(=O)[C@H](CO)NC(=O)[C@H](Cc1c[nH]cn1)NC(=O)[C@H](CCCNC(=N)N)NC(=O)[C@H](CC(C)C)NC(=O)[C@H](Cc1ccccc1)NC(=O)[C@H](CCC(=O)O)NC(=O)[C@H](C)NC(=O)[C@H](CC(C)C)NC(=O)[C@H](CCCNC(=N)N)NC(=O)[C@H](CCC(N)=O)NC(=O)[C@@H](NC(=O)[C@H](C)NC(=O)[C@@H]1CSSC[C@H](NC(=O)[C@H](CCCCN)NC(=O)CC[C@H](NC(=O)CCCCCCCCCCCCCCCCCCC(=O)O)C(=O)O)C(=O)N[C@@H](CC(N)=O)C(=O)N[C@@H]([C@@H](C)O)C(=O)N[C@@H](C)C(=O)N[C@@H]([C@@H](C)O)C(=O)N1)[C@@H](C)O)C(=O)N1CCC[C@H]1C(=O)N[C@@H](CO)C(=O)N1CCC[C@H]1C(=O)N[C@H](C(=O)N[C@@H](CC(N)=O)C(=O)N[C@H](C(=O)NCC(=O)N[C@@H](CO)C(=O)N[C@@H](CC(N)=O)C(=O)N[C@H](C(=O)N[C@@H](Cc1ccc(O)cc1)C(N)=O)[C@@H](C)O)C(C)C)[C@@H](C)O` [Example 37] ({C20 diacid-γGlu}-KCNTATCATQRLAEFLRHSSPNFGAIPSPTNVGSNTY-NH2; disulfide 2-7 (inferred)), in data set [1], the “ThT pH 4.0 lag time (h)” value is listed as 15 h. Also, the solubility at 18 h in data set [2] (setting [3]), in data set [2] (setting [4]), in data set [2] (setting [5]), in data set [2] (setting [6]), in data set [2] (setting [7]) and in data set [2] (setting [8]) was no less than 200 µM each time. The solubility at 18 h in data set [2] (setting [9]) and in data set [2] (setting [10]) was no less than 200 µM throughout.

For the compound `CC[C@H](C)[C@H](NC(=O)[C@H](C)NC(=O)CNC(=O)[C@H](Cc1ccccc1)NC(=O)[C@H](CC(N)=O)NC(=O)[C@@H]1CCCN1C(=O)[C@H](CO)NC(=O)[C@H](CO)NC(=O)[C@H](Cc1c[nH]cn1)NC(=O)[C@H](CCCNC(=N)N)NC(=O)[C@H](CC(C)C)NC(=O)[C@H](Cc1ccccc1)NC(=O)[C@H](CC(=O)O)NC(=O)[C@H](C)NC(=O)[C@H](CC(C)C)NC(=O)[C@H](CCCNC(=N)N)NC(=O)[C@H](CCC(N)=O)NC(=O)[C@@H](NC(=O)[C@H](C)NC(=O)[C@@H]1CSSC[C@H](NC(=O)[C@@H](N)CCCCNC(=O)CC[C@H](NC(=O)CCCCCCCCCCCCCCCCCCC(=O)O)C(=O)O)C(=O)N[C@@H](CC(N)=O)C(=O)N[C@@H]([C@@H](C)O)C(=O)N[C@@H](C)C(=O)N[C@@H]([C@@H](C)O)C(=O)N1)[C@@H](C)O)C(=O)N1CCC[C@H]1C(=O)N[C@@H](CO)C(=O)N[C@@H](CO)C(=O)N[C@H](C(=O)N[C@@H](CC(N)=O)C(=O)N[C@H](C(=O)NCC(=O)N1CCC[C@H]1C(=O)N[C@@H](CCCNC(=N)N)C(=O)N[C@H](C(=O)N[C@@H](Cc1ccc(O)cc1)C(N)=O)[C@@H](C)O)C(C)C)[C@@H](C)O` [Example 129] (H-K([γGlu-C20 diacid])CNTATCATQRLADFLRHSSPNFGAIPSSTNVGPRTY-NH2; disulfide 2-7 (inferred); N-terminus assumed), the “ThT pH 4.0 lag time (h)” value in data set [1] was determined as 45 h. Further, the solubility at 18 h is no less than 200 µM in data set [2] (setting [3]); 187 µM (≈ 829 µg/mL) in data set [2] (setting [4]); no less than 200 µM in data set [2] (setting [5]); no less than 200 µM in data set [2] (setting [6]); 102 µM (≈ 452 µg/mL) in data set [2] (setting [7]); no less than 200 µM in data set [2] (setting [8]). In addition, the solubility at 18 h in data set [2] (setting [9]) and in data set [2] (setting [10]) was no less than 200 µM each time.

Regarding `CC[C@H](C)[C@H](NC(=O)[C@H](C)NC(=O)CNC(=O)[C@H](Cc1ccccc1)NC(=O)[C@H](CC(N)=O)NC(=O)[C@@H]1CCCN1C(=O)[C@H](CO)NC(=O)[C@H](CO)NC(=O)[C@H](Cc1c[nH]cn1)NC(=O)[C@H](CCCNC(=N)N)NC(=O)[C@H](CC(C)C)NC(=O)[C@H](Cc1ccccc1)NC(=O)[C@H](CCC(=O)O)NC(=O)[C@H](C)NC(=O)[C@H](CC(C)C)NC(=O)[C@H](CCCNC(=N)N)NC(=O)[C@H](CCC(N)=O)NC(=O)[C@@H](NC(=O)[C@H](C)NC(=O)[C@@H]1CSSC[C@H](NC(=O)[C@@H](N)CCCCNC(=O)CC[C@H](NC(=O)CCCCCCCCCCCCCCCCCCC(=O)O)C(=O)O)C(=O)N[C@@H](CC(N)=O)C(=O)N[C@@H]([C@@H](C)O)C(=O)N[C@@H](C)C(=O)N[C@@H]([C@@H](C)O)C(=O)N1)[C@@H](C)O)C(=O)N1CCC[C@H]1C(=O)N[C@@H](CO)C(=O)N[C@@H](CO)C(=O)N[C@H](C(=O)N[C@@H](CC(N)=O)C(=O)N[C@H](C(=O)NCC(=O)N[C@@H](CO)C(=O)N[C@@H](Cc1c[nH]cn1)C(=O)N[C@H](C(=O)N[C@@H](Cc1ccc(O)cc1)C(N)=O)[C@@H](C)O)C(C)C)[C@@H](C)O` [Example 128] (H-K([γGlu-C20 diacid])CNTATCATQRLAEFLRHSSPNFGAIPSSTNVGSHTY-NH2; disulfide 2-7 (inferred); N-terminus assumed), the “ThT pH 4.0 lag time (h)” value in data set [1] was found to be 41 h. The solubility at 18 h in data set [2] (setting [3]), in data set [2] (setting [4]), in data set [2] (setting [5]), in data set [2] (setting [6]), in data set [2] (setting [7]) and in data set [2] (setting [8]) was no less than 200 µM each time. Further, the solubility at 18 h in data set [2] (setting [9]) and in data set [2] (setting [10]) was no less than 200 µM throughout.

Regarding `CC[C@H](C)[C@H](NC(=O)[C@H](C)NC(=O)CNC(=O)[C@H](Cc1ccccc1)NC(=O)[C@H](CC(N)=O)NC(=O)[C@@H]1CCCN1C(=O)[C@H](CO)NC(=O)[C@H](CO)NC(=O)[C@H](Cc1c[nH]cn1)NC(=O)[C@H](CCCNC(=N)N)NC(=O)[C@H](CC(C)C)NC(=O)[C@H](Cc1ccccc1)NC(=O)[C@H](CCC(=O)O)NC(=O)[C@H](C)NC(=O)[C@H](CC(C)C)NC(=O)[C@H](CCCNC(=N)N)NC(=O)[C@H](CCC(N)=O)NC(=O)[C@@H](NC(=O)[C@H](C)NC(=O)[C@@H]1CSSC[C@H](NC(=O)[C@H](CCCCN)NC(=O)CC[C@H](NC(=O)CCCCCCCCCCCCCCCCCCC(=O)O)C(=O)O)C(=O)N[C@@H](CC(N)=O)C(=O)N[C@@H]([C@@H](C)O)C(=O)N[C@@H](C)C(=O)N[C@@H]([C@@H](C)O)C(=O)N1)[C@@H](C)O)C(=O)N1CCC[C@H]1C(=O)N[C@@H](CO)C(=O)N[C@@H](CO)C(=O)N[C@H](C(=O)N[C@@H](CC(N)=O)C(=O)N[C@H](C(=O)NCC(=O)N[C@@H](CO)C(=O)N[C@@H](CC(N)=O)C(=O)N[C@H](C(=O)N1CCC[C@H]1C(N)=O)[C@@H](C)O)C(C)C)[C@@H](C)O` [Example 8] ({C20 diacid-γGlu}-KCNTATCATQRLAEFLRHSSPNFGAIPSSTNVGSNTP-NH2; disulfide 2-7), the “ThT pH 4.0 lag time (h)” value in data set [1] is 45 h. The solubility at 18 h in data set [2] (setting [3]), in data set [2] (setting [4]), in data set [2] (setting [5]), in data set [2] (setting [6]), in data set [2] (setting [7]) and in data set [2] (setting [8]) was no less than 200 µM in each case. Moreover, the solubility at 18 h in data set [2] (setting [9]) and in data set [2] (setting [10]) was no less than 200 µM throughout.

For the compound `CC[C@H](C)[C@H](NC(=O)[C@H](C)NC(=O)CNC(=O)[C@H](Cc1ccccc1)NC(=O)[C@H](CC(N)=O)NC(=O)[C@@H]1CCCN1C(=O)[C@H](CO)NC(=O)[C@H](CO)NC(=O)[C@H](Cc1c[nH]cn1)NC(=O)[C@H](CCCNC(=N)N)NC(=O)[C@H](CC(C)C)NC(=O)[C@H](Cc1ccccc1)NC(=O)[C@H](CCC(=O)O)NC(=O)[C@H](C)NC(=O)[C@H](CC(C)C)NC(=O)[C@H](CCCNC(=N)N)NC(=O)[C@H](CCC(N)=O)NC(=O)[C@@H](NC(=O)[C@H](C)NC(=O)[C@@H]1CSSC[C@H](NC(=O)[C@@H](N)CCCCNC(=O)CC[C@H](NC(=O)CCCCCCCCCCCCCCCCCCC(=O)O)C(=O)O)C(=O)N[C@@H](CC(N)=O)C(=O)N[C@@H]([C@@H](C)O)C(=O)N[C@@H](C)C(=O)N[C@@H]([C@@H](C)O)C(=O)N1)[C@@H](C)O)C(=O)N1CCC[C@H]1C(=O)N[C@@H](CO)C(=O)N[C@@H](CO)C(=O)N[C@H](C(=O)N[C@@H](CC(N)=O)C(=O)N[C@H](C(=O)NCC(=O)N[C@@H](CO)C(=O)N[C@@H](CC(N)=O)C(=O)N[C@H](C(=O)N1CCC[C@H]1C(N)=O)[C@@H](C)O)C(C)C)[C@@H](C)O` [Example 12] (H-K([γGlu-C20 diacid])CNTATCATQRLAEFLRHSSPNFGAIPSSTNVGSNTP-NH2; disulfide 2-7 (inferred); N-terminus assumed), in data set [1], the “ThT pH 4.0 lag time (h)” value is 45 h. The solubility at 18 h in data set [2] (setting [3]), in data set [2] (setting [4]), in data set [2] (setting [5]), in data set [2] (setting [6]), in data set [2] (setting [7]) and in data set [2] (setting [8]) was no less than 200 µM throughout. In addition, the solubility at 18 h in data set [2] (setting [9]) and in data set [2] (setting [10]) was no less than 200 µM each time.
